Test results taken from PMC11324666, “Two novel in vitro assays to screen chemicals for their capacity to inhibit thyroid hormone transmembrane transporter proteins OATP1C1 and OAT4” (Archives of Toxicology, 2024).
Read-outs that look alike come from different tables or passages of the source.

Experiments:
CHO-K1 OATP1C1 cells = details: for Cytotoxicity IC10: concentration that inhibits cell viability by 10%, CHO-K1 OATP1C1 cells, 30 min exposure
Description: Cell viability was assessed through the quantitation of ATP present in cells using the commercially available CellTiter-Glo® luminescent cell viability assay and performed according to the manufacturer’s instruction (Promega, Leiden, the Netherlands). Briefly, cells were seeded as described earlier in opaque-walled clear-bottom 96 well plates. On the day of the experiment, each well was washed with 200 µL phosphate buffered saline (PBS) and exposed to 80 µL of uptake buffer, 10 µL of a tenfold stock of test compound solved in uptake buffer or control and 10 µL of T4 (final concentration 10 nM). 0.1% DMSO was used as a solvent control, while 10% DMSO was used as a positive control. After exposure for the indicated times similar to THTMT TH uptake assay, cells were immediately washed with ice-cold PBS + 0.1%BSA and exposed to 100 µL of the CellTiter-Glo® Reagent. Plates were then shaken on an orbital shaker for 2 min and left to incubate at room temperature for 10 min. Luminescence was measured on a BioTek Cytation 5 microplate reader. […] Each individual experiment was repeated at least twice and contained three technical replicates of each control and concentration tested.
Figure S1. […] Blue dots indicate the plate medians from three or four independent experiments, all control and chemical concentrations were tested in triplicates per plate.

OATP1C1 = target: T1, OATP1C1 (Homo sapiens, UniProt Q9NYB5); assay: CHO-K1 OATP1C1 TH uptake assay with 125I-T4 tracer; assay type: cell-based; details: for 125I-T4 uptake compared to the vehicle control (range finding): single concentration 10 or 100 µM, below 80% = positive hit
T1 construct: host or cells: CHO-K1
T1 sequence (Q9NYB5 1-712): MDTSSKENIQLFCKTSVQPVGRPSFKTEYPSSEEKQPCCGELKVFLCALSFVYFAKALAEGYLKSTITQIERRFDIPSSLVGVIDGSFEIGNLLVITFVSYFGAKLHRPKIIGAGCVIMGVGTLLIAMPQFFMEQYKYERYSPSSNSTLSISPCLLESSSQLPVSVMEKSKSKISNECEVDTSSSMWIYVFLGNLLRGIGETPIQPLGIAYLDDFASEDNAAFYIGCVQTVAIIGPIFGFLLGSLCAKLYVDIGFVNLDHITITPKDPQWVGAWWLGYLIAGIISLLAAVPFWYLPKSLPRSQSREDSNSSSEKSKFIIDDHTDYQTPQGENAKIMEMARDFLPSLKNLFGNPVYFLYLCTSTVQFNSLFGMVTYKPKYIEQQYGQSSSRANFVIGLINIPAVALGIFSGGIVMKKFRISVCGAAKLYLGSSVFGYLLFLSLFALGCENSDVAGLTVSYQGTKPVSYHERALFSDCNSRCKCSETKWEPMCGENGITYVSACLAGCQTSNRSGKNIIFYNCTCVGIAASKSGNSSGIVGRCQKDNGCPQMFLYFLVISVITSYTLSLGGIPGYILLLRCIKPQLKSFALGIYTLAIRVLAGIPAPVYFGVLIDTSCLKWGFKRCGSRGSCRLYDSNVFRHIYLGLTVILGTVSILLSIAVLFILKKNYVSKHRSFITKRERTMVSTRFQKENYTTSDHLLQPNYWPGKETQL
Description: MDCK-OAT4 and MDCK-DEST cells were cultured in DMEM:F12 (L-glutamine, 15 mM HEPES) (Gibco) supplemented with (100 µg/mL penicillin + 100 µg/mL streptomycin), 10% fetal calf serum (Gibco) and 2 µg/mL blasticidin (Sigma). CHO-K1 OATP1C1 or WT cells were cultured in F12 nutrient mix (Gibco) supplemented with (100 µg/mL penicillin + 100 µg/mL streptomycin), 10% fetal calf serum (Gibco) and […] G418 (Sigma). All cell cultures were incubated at 37 °C with 5% CO2 saturation until 80% confluency. MDCK-OAT4 and MDCK-DEST cells were seeded in 96 wells plate at a density of 4 × 10^5 cells in 100 µL medium per well and incubated for 24 h before the start of the MDCK-OAT4 TH uptake assay. CHO-K1 OATP1C1 and WT cells were seeded in 96 wells plate at a density of 3 × 10^5 cells in 100 µL medium per well 72 h before the CHO-K1 OATP1C1 TH uptake assay. Medium from CHO-K1 OATP1C1 or WT assay plates was changed to serum-free F12 medium containing 5 mM sodium-butyrate 24 h before start of the CHO-K1 OATP1C1 TH uptake assay to increase transfected expression of SV-40 promotor plasmids.
Subsequently 10 µL of a tenfold stock of test compound in uptake buffer (solvent concentration 1% v/v) was added to each well. […] Cells were exposed at 37 °C for 20 min (MDCK-OAT4) or 30 min (CHO-K1 OATP1C1), unless stated differently. After exposure, cells were immediately washed with ice-cold PBS supplemented with 0.1% bovine serum albumin (BSA). Subsequently, cells were lysed in 50 µL of 0.1 M NaOH under continuous shaking at room temperature. After 20 min, cell lysates were manually transferred into separate 5 mL polypropylene tubes. One tube was also prepared with 10 µL of the T4 tracer solution. Radioactivity was measured in a Wizard^2 gamma counter (Perkin Elmer).
For the CHO-K1 OATP1C1 TH uptake assay total of 29 chemicals (Table 1) were selected for the EDC screening based on available literature data. […] The same chemicals were selected for the MDCK-OAT4 TH uptake assay, with the exception of BPF, VRP and TCS. […] The THTMT TH uptake assay was then performed as described earlier. […] A concentration of 100 µM ICG was used as a reference chemical for OATP1C1 and 100 µM LESI for OAT4. At least three independent experiments were performed for each chemical.
Raw values were normalized to the total amount of radioactivity in the T4 tracer solution. These values were expressed as a percentage of total radioactivity added (or uptake percentage) and used for all further data analysis. Statistically significant differences between the T4 uptake of transfected and wild type cells, in the presence or absence of inhibitor, were determined by two-way ANOVA (α = 5%, two-sided). […] In brief, uptake values were normalized to the median response of the vehicle and positive controls for each plate. […] Statistical analysis were performed using GraphPad Prism version 8 for Windows (GraphPad Software, San Diego, California USA) and SAS 9.3 (SAS Institute, Cary NC).

[1] = concentration that inhibits 125I-T4 uptake by 20%, 10 nM T4, 30 min, brackets = 95% CI

**Q.** Which results are given for `O=c1c(O)c(-c2ccc(O)c(O)c2)oc2cc(O)cc(O)c12` [Quercetin]?
**A.** Cytotoxicity IC10 (CHO-K1 OATP1C1 cells): > 100 µM; T4 uptake inhibition BMC20 (M), [CI] (OATP1C1; [1]): 3.94E−08 [4.41E−09; 3.51E−07] M

**Q.** For `Oc1c(Cl)c(Cl)c(Cl)c(Cl)c1Cl` [Pentachlorophenol], which “Cytotoxicity IC10” value (CHO-K1 OATP1C1 cells) is on record?
**A.** > 18.5 µM

**Q.** What about the “T4 uptake inhibition BMC20 (M), [CI]” value (OATP1C1) of the same compound?
**A.** 8.81E−08 [5.80E−08; 1.34E−07] M

**Q.** Which “Cytotoxicity IC10” value (CHO-K1 OATP1C1 cells) does the source give for `CC1(C)C(/C=C/C=C/C=C/C=C2\N(CCCCS(=O)(=O)O)c3ccc4ccccc4c3C2(C)C)=[N+](CCCCS(=O)(=O)[O-])c2ccc3ccccc3c21` [Indocyanine green, reference compound] here?
**A.** > 100 µM

**Q.** And the “T4 uptake on co-exposure to known inhibitor” value (OATP1C1; 100 µM, t = 40 min, versus CHO-K1 wildtype cells)?
**A.** decreased back to control

**Q.** What about the “T4 uptake inhibition BMC20 (M), [CI]” value (OATP1C1; [1]) of the same compound?
**A.** 3.60E−07 [2.17E−07; 5.97E−07] M

**Q.** For `COc1cc([C@@H]2Oc3c(O)cc([C@H]4Oc5cc(O)cc(O)c5C(=O)[C@@H]4O)cc3[C@H]2CO)ccc1O` [Silychristin, reference compound], which “Cytotoxicity IC10” value (CHO-K1 OATP1C1 cells) is on record?
**A.** > 10 µM

**Q.** And the “T4 uptake inhibition BMC20 (M), [CI]” value (OATP1C1; [1])?
**A.** 3.78E−06 [1.54E−06; 9.27E−06] M

**Q.** What about the “125I-T4 uptake compared to the vehicle control (range finding)” value (OATP1C1; 10 nM T4, 30 min) of the same compound?
**A.** below 80%

**Q.** What does the source list for `O=C1OC(c2ccc(O)c(S(=O)(=O)O)c2)(c2ccc(O)c(S(=O)(=O)O)c2)c2c(Br)c(Br)c(Br)c(Br)c21` [Bromosulfophthalein, reference compound]?
**A.** Cytotoxicity IC10 (CHO-K1 OATP1C1 cells): > 100 µM; T4 uptake inhibition BMC20 (M), [CI] (OATP1C1; [1]): 8.72E−07 [5.70E−07; 1.33E−06] M; 125I-T4 uptake compared to the vehicle control (range finding) (OATP1C1; 10 nM T4, 30 min): below 80%

**Q.** What does the source list for `Oc1ccc(Cc2ccc(O)cc2)cc1` [Bisphenol F, Bisphenol-F]?
**A.** Cytotoxicity IC10 (CHO-K1 OATP1C1 cells): > 100 µM; T4 uptake inhibition BMC20 (M), [CI] (OATP1C1; [1]): 4.49E−05 [2.80E−05; 7.20E−05] M; 125I-T4 uptake compared to the vehicle control (range finding) (OATP1C1; 10 nM T4, 30 min): below 80%

**Q.** Which cytotoxic effects (CHO-K1 OATP1C1 cells; at concentrations of the uptake assay, Figure S1) does the source give for `Oc1ccc(C(c2ccc(O)cc2)(C(F)(F)F)C(F)(F)F)cc1` [Bisphenol AF, Bisphenol-AF] here?
**A.** confounded by cytotoxic effects

**Q.** And the “Cytotoxicity IC10” value (CHO-K1 OATP1C1 cells)?
**A.** 0.909 µM

**Q.** And the “T4 uptake inhibition BMC20 (M), [CI]” value (OATP1C1; [1])?
**A.** 3.52E−06 [2.03E−06; 6.11E−06] M

**Q.** Which results are given for `O=C(O)C(F)(F)C(F)(F)C(F)(F)C(F)(F)C(F)(F)C(F)(F)C(F)(F)F` [Perfluorooctanoic acid]?
**A.** Cytotoxicity IC10 (CHO-K1 OATP1C1 cells): > 100 µM; T4 uptake inhibition BMC20 (M), [CI] (OATP1C1; [1]): 2.94E−06 [1.04E−06; 8.36E−06] M

**Q.** What does the source list for `CCCN(CCC)S(=O)(=O)c1ccc(C(=O)O)cc1` [Probenecid, reference compound]?
**A.** Cytotoxicity IC10 (CHO-K1 OATP1C1 cells): > 100 µM; T4 uptake inhibition BMC20 (M), [CI] (OATP1C1; [1]): 6.66E−07 [1.24E−07; 3.57E−06] M

**Q.** What does the source list for `CO[C@H]1/C=C/O[C@@]2(C)Oc3c(C)c(O)c4c(O)c(c(/C=N/N5CCN(C)CC5)c(O)c4c3C2=O)NC(=O)/C(C)=C\C=C\[C@H](C)[C@H](O)[C@@H](C)[C@@H](O)[C@@H](C)[C@H](OC(C)=O)[C@@H]1C` [Rifampicin, reference compound]?
**A.** Cytotoxicity IC10 (CHO-K1 OATP1C1 cells): > 100 µM; T4 uptake inhibition BMC20 (M), [CI] (OATP1C1; [1]): 4.06E−05 [2.58E−05; 6.38E−05] M

**Q.** Which results are given for `CC(C)(c1cc(Br)c(O)c(Br)c1)c1cc(Br)c(O)c(Br)c1` [Tetrabromobisphenol A, Tetrabromobisphenol-A]?
**A.** Cytotoxicity IC10 (CHO-K1 OATP1C1 cells): > 0.3 µM; BMC20 (20% reduction in T4 uptake) (OATP1C1): 0.0020 µM; T4 uptake inhibition BMC20 (M), [CI] (OATP1C1; [1]): 2.03E−09 [1.28E−09; 3.22E−09] M; 125I-T4 uptake compared to the vehicle control (range finding) (OATP1C1; 10 nM T4, 30 min): below 80%

**Q.** Which results are given for `O=S(=O)([O-])c1cc(S(=O)(=O)O)ccc1C1=c2cc3c4c(c2Oc2c1cc1c5c2CCCN5CCC1)CCC[N+]=4CCC3` [Sulforhodamine 101, reference compound]?
**A.** Cytotoxicity IC10 (CHO-K1 OATP1C1 cells): > 10 µM; T4 uptake inhibition BMC20 (M), [CI] (OATP1C1; [1]): 2.86E−06 [1.29E−06; 6.34E−06] M; 125I-T4 uptake compared to the vehicle control (range finding) (OATP1C1; 10 nM T4, 30 min): below 80%

**Q.** How did the “Cytotoxicity IC10” value (CHO-K1 OATP1C1 cells) turn out when `O=S(=O)(O)C(F)(F)C(F)(F)C(F)(F)C(F)(F)C(F)(F)C(F)(F)C(F)(F)C(F)(F)F` [Perfluorooctanesulfonic acid] was run?
**A.** > 100 µM

**Q.** And the “T4 uptake inhibition BMC20 (M), [CI]” value (OATP1C1; [1])?
**A.** 4.03E−07 [2.32E−07; 7.00E−07] M

**Q.** What about the “125I-T4 uptake compared to the vehicle control (range finding)” value (OATP1C1; 10 nM T4, 30 min) of the same compound?
**A.** below 80%
